By GI50 is commonly meant the concentration giving 50% growth inhibition.

Consider 21 compounds from ChEMBL document CHEMBL1201862, “PubChem BioAssay data set” (2004).

Among the test systems are DLD-1; DMS-114; DMS-273; HOP-18; KM-20L2; RXF 631; SNB-78; XF498; M19-MEL.
Holding throughout (assay): DTP human tumour cell line panel, 48 h

Structures are written as SMILES.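 A five-concentration, 48-hour dose response in 96-well plates underlies each endpoint, interpolated linearly between surrounding concentrations. At the GI50, growth is halved.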 Calls of active or inactive are those of the source. Cut-off read from the data, not from the text of the source: active = GI50 up to about 1.1 µM and inactive = higher. Some results are limits rather than exact numbers.

Take `O=C(/C=C/c1cccc2ccccc12)c1ccccc1Cl`: the GI50 in the assay on DLD-1 is 7.89 µM (inactive); with DMS-114, 12 µM (inactive); in the assay with DMS-273, 14.4 µM (inactive); in the assay on HOP-18, 17.1 µM (inactive); in the assay with KM-20L2 it was 12.7 µM (inactive); in the assay with RXF 631 it was 18.1 µM (inactive). Besides, the GI50 is 19.6 µM (inactive) with SNB-78 and 7.59 µM (inactive) in the assay on XF498.

As to `Cn1c2c(c3ccccc31)CCN(CCN1CCN(c3ccccc3)CC1)C2=O`, the GI50 in the assay with DLD-1 is > 100 µM (inactive); with DMS-114, > 100 µM (inactive); in the assay on DMS-273 it was > 100 µM (inactive); in the assay on HOP-18, 55 µM (inactive); in the assay with KM-20L2, > 100 µM (inactive); in the assay on RXF 631, > 100 µM (inactive). Further, the GI50 in the assay with XF498 was 22.2 µM (inactive).

Take `Cc1ccc(NC(=O)CC(=O)n2nc(-c3ccccc3)c(/N=N/c3ccccc3Cl)c2-c2ccccc2)cc1`: the GI50 in the assay on DLD-1 is > 10 µM (inactive); in the assay on DMS-114, > 10 µM (inactive); in the assay on DMS-273, 41.8 µM (inactive); in the assay on HOP-18 it was 38.1 µM (inactive); in the assay on KM-20L2, > 10 µM (inactive); in the assay with M19-MEL, > 10 µM (inactive). The GI50 is 96.2 µM (inactive) with RXF 631, > 10 µM (inactive) with SNB-78 and 49 µM (inactive) in the assay on XF498.

`Cc1nc(-n2nc(-c3ccccc3)cc2-c2ccccc2)sc1C(/C=C\c1ccc([N+](=O)[O-])cc1)=N/NC(=S)NN`: the GI50 in the assay on DLD-1 was 19.2 µM (inactive); in the assay on DMS-114, 37.4 µM (inactive); in the assay with KM-20L2, 50.6 µM (inactive); in the assay with M19-MEL it was > 100 µM (inactive); with SNB-78 it was 70 µM (inactive).

For the compound `CCCCCCCCCCCCC(=O)OC(c1cnco1)c1nc(C(O)CC(O)C(O)C(C)O)co1` (stereo not given), the concentration for 50% growth inhibition (GI50) in the assay with DLD-1 was 0.946 µM (active); in the assay on DMS-114 it was 0.18 µM (active); with DMS-273 it was 0.104 µM (active); with HOP-18 it was 3.48 µM (inactive); in the assay on KM-20L2 it was 1.23 µM (inactive); in the assay on M19-MEL, 0.78 µM (active). Moreover, the GI50 in the assay on XF498 was 0.627 µM (active).

Consider `O=C(CCc1nnc(S)[nH]1)Nc1ccc(Cl)c(Cl)c1`, for which the GI50 in the assay with DLD-1 is > 100 µM (inactive); with DMS-114, 23.5 µM (inactive); in the assay on DMS-273, 19.8 µM (inactive); in the assay on HOP-18, > 100 µM (inactive); in the assay with KM-20L2 it was 6.12 µM (inactive); in the assay on M19-MEL it was 43.6 µM (inactive). Further, the results for the GI50 in the assay with RXF 631, in the assay with SNB-78 and with XF498 were 72.3 µM (inactive), > 100 µM (inactive) and > 100 µM (inactive), respectively.

`C=CC(=O)NCNC(=O)C=C`: the GI50 in the assay on DLD-1, in the assay on DMS-114, with DMS-273, in the assay on HOP-18, with KM-20L2 and in the assay with M19-MEL was > 100 µM (inactive) each time. In addition, the GI50 in the assay on XF498 is > 100 µM (inactive).

For `CCOC(=O)C1=C(C(=O)OCC)C2(c3ccccc3)N(O1)c1ccccc1C2(C)C` (stereo not given), the GI50 with DLD-1 is 50 µM (inactive); with HOP-18, 23.3 µM (inactive); in the assay with KM-20L2, 39.1 µM (inactive); in the assay with M19-MEL, 70.8 µM (inactive); in the assay with SNB-78 it was 54.8 µM (inactive).

As for `NS(=O)(=O)c1ccc(NC(=O)CC(=O)Nc2ccc(S(N)(=O)=O)cc2)cc1`, the GI50 in the assay with DLD-1, in the assay with DMS-114, in the assay with DMS-273, with HOP-18, with KM-20L2 and in the assay with M19-MEL was > 100 µM (inactive) throughout. For the same compound, the GI50 in the assay with SNB-78 was > 100 µM (inactive).

Regarding `CCOC(=O)C(Cc1ccccc1)NC(=O)OC(C)(C)C` (stereo not given), the GI50 in the assay with DLD-1, in the assay on DMS-114, in the assay on DMS-273, in the assay with M19-MEL, with RXF 631 and in the assay on SNB-78 was > 100 µM (inactive) each time. For the same compound, the GI50 in the assay with XF498 was > 100 µM (inactive).

Turning to `CCN(CC)CCNC(=O)c1ccc(C)c(OCc2ccccc2)c1[N+](=O)[O-]`, the GI50 in the assay on DLD-1 is 34.3 µM (inactive); in the assay on DMS-114, 26.5 µM (inactive); in the assay on DMS-273, 23.6 µM (inactive); in the assay on HOP-18 it was > 100 µM (inactive); with KM-20L2, 27.2 µM (inactive); in the assay with M19-MEL it was 18.1 µM (inactive). Further, the figures for the GI50 in the assay with SNB-78 and in the assay with XF498 were 61.9 µM (inactive) and 20.8 µM (inactive), respectively.

For the compound `NC(=O)c1csc(C2CCC(CO)O2)n1` (stereo not given), the GI50 with DMS-114, in the assay with DMS-273, in the assay with HOP-18, with KM-20L2, with M19-MEL and in the assay on SNB-78 was > 100 µM (inactive) each time.

As for `CC[n+]1c(/C=C/c2ccc(N(CCCl)CCCl)cc2)ccc2cc(Br)ccc21`, the GI50 is 2.71 µM (inactive) in the assay with DLD-1; 0.662 µM (active) with DMS-114; 244 µM (inactive) in the assay on DMS-273; 6.14 µM (inactive) in the assay on HOP-18; 3.13 µM (inactive) in the assay with KM-20L2; 1.2 µM (inactive) with M19-MEL. Also, the GI50 is 630 µM (inactive) in the assay with RXF 631, 0.76 µM (active) with SNB-78 and 0.275 µM (active) in the assay with XF498.

On to `COC1=C(C)C(=O)C2=C(C1=O)C1C3CC4=C(C(=O)C(OC)=C(C)C4=O)C(CNC(=O)C(C)O)N3C(C#N)C(C2)N1C` (stereo not given), for which the GI50 in the assay with DLD-1, with DMS-114, with DMS-273, with HOP-18, with KM-20L2 and with M19-MEL was < 0.01 µM (active) in each case. Also, the concentration for 50% growth inhibition (GI50) with SNB-78 and with XF498 was < 0.01 µM (active) throughout.

With `CCN(CC)CC(=O)Nc1ccc2c(c1)C(=O)c1ccc(NC(=O)CN(CC)CC)cc1C2=O`, the GI50 is 26.2 µM (inactive) in the assay on DLD-1; 20.4 µM (inactive) in the assay with DMS-114; 18.7 µM (inactive) in the assay on DMS-273; 49.8 µM (inactive) in the assay with KM-20L2; > 100 µM (inactive) with M19-MEL; 98.9 µM (inactive) in the assay on SNB-78.

Take `CSc1cnc2ccccc2c1Sc1cn(C)c2ccccc2c1=O`: the GI50 in the assay with DLD-1 was > 100 µM (inactive); with DMS-114, 14.9 µM (inactive); with DMS-273 it was 21.6 µM (inactive); with HOP-18, 34 µM (inactive); in the assay on KM-20L2, 38.9 µM (inactive); in the assay with M19-MEL, 56 µM (inactive). Besides, the figures for the GI50 in the assay on RXF 631 and in the assay on XF498 were 10 µM (inactive) and 21.9 µM (inactive), respectively.

Take `CC(=O)O[C@@]12CO[C@@H]1CC(O)[C@@]1(C)C(=O)[C@H](O)C3=C(C)C(O)C[C@@](O)(C(OC(=O)c4ccccc4)C12)C3(C)C` (stereo not given in full): the GI50 in the assay with DMS-273 is 0.472 µM (active); in the assay with KM-20L2, 0.679 µM (active); with M19-MEL it was 12.8 µM (inactive); with SNB-78 it was 15.5 µM (inactive); in the assay on XF498, 2.07 µM (inactive).

As to `c1nc(N2CC2)c2cnn(C3CCCCO3)c2n1` (stereo not given), the GI50 in the assay with DLD-1, in the assay on DMS-114, in the assay with DMS-273, with KM-20L2, in the assay with M19-MEL and in the assay on SNB-78 was > 100 µM (inactive) in each case. In addition, the GI50 in the assay on XF498 is > 100 µM (inactive).

For `c1ccc(SC2CCSc3ccccc3C2Sc2ccccc2)cc1` (stereo not given), the GI50 is > 100 µM (inactive) with DLD-1; > 10 µM (inactive) in the assay on DMS-114; > 100 µM (inactive) with DMS-273; > 100 µM (inactive) in the assay with KM-20L2; > 10 µM (inactive) in the assay on M19-MEL; > 100 µM (inactive) in the assay on SNB-78. In addition, the GI50 in the assay with XF498 was > 100 µM (inactive).

Take `COc1cc(CNc2nc3c(N)cc(C(F)(F)F)cc3nc2-c2ccccc2)cc(OC)c1OC`: the GI50 was 31.8 µM (inactive) in the assay on DLD-1; 12.3 µM (inactive) in the assay with DMS-114; 37.8 µM (inactive) with DMS-273; > 10 µM (inactive) with HOP-18; 29.6 µM (inactive) in the assay with KM-20L2; 35.4 µM (inactive) in the assay with M19-MEL. Also, the GI50 in the assay with RXF 631 is 44.3 µM (inactive); with SNB-78, > 10 µM (inactive); in the assay with XF498, 13.7 µM (inactive).

For the compound `O=C(O)Cc1cccc2c1Oc1ccccc1S2`, the GI50 with DLD-1, with DMS-114, with DMS-273, in the assay with KM-20L2, with M19-MEL and in the assay on SNB-78 was > 100 µM (inactive) in each case.
